# ± gives the expanded uncertainty stated by the source.
# Details: Liquid
# [1] = 298.15 K, 100 kPa, Moving piston method
# [2] = 298.15 K, 101.33 kPa, Cone and plate viscometry
# [3] = 298.15 K, 101.33 kPa, Moving piston method
# [4] = 323.15 K, 100 kPa, Moving piston method
# [5] = 323.15 K, 101.33 kPa, Moving piston method
# [6] = 343.15 K, 100 kPa, Moving piston method
# [7] = 343.15 K, 101.33 kPa, Moving piston method
smiles,measurement,setting,value
CCCCn1cc[n+](C)c1.F[P-](F)(F)(F)(F)F [1-butyl-3-methylimidazolium hexafluorophosphate],viscosity,[1],270.9 ± 21 mPa·s
same,viscosity,"298.15 K, 3400 kPa, Moving piston method",289.7 ± 23 mPa·s
same,viscosity,"298.15 K, 6900 kPa, Moving piston method",305.7 ± 24 mPa·s
same,viscosity,"298.15 K, 12100 kPa, Moving piston method",329.2 ± 26 mPa·s
same,viscosity,"298.15 K, 17200 kPa, Moving piston method",353.7 ± 29 mPa·s
same,viscosity,"298.15 K, 24700 kPa, Moving piston method",396.3 ± 33 mPa·s
same,viscosity,"298.15 K, 25700 kPa, Moving piston method",398.2 ± 33 mPa·s
same,viscosity,"298.15 K, 41400 kPa, Moving piston method",473.8 ± 41 mPa·s
same,viscosity,"298.15 K, 50600 kPa, Moving piston method",543.4 ± 49 mPa·s
CCn1cc[n+](C)c1.O=S(=O)([N-]S(=O)(=O)C(F)(F)F)C(F)(F)F,viscosity,[1],34.4 ± 2.1 mPa·s
same,viscosity,[2],34.1 ± 1 mPa·s
same,viscosity,[3],34.29 ± 0.26 mPa·s
same,viscosity,"298.15 K, 2820 kPa, Moving piston method",35 ± 2.1 mPa·s
same,viscosity,"298.15 K, 4190 kPa, Moving piston method",35.3 ± 2.1 mPa·s
same,viscosity,"298.15 K, 7360 kPa, Moving piston method",36.2 ± 2.2 mPa·s
same,viscosity,"298.15 K, 35560 kPa, Moving piston method",46.8 ± 2.8 mPa·s
same,viscosity,"298.15 K, 48760 kPa, Moving piston method",53.3 ± 3.2 mPa·s
same,viscosity,"298.15 K, 69300 kPa, Moving piston method",65 ± 3.9 mPa·s
same,viscosity,"298.15 K, 85200 kPa, Moving piston method",79.4 ± 4.8 mPa·s
same,viscosity,"298.15 K, 96500 kPa, Moving piston method",90 ± 5.4 mPa·s
same,viscosity,"298.15 K, 110550 kPa, Moving piston method",108.6 ± 6.5 mPa·s
same,viscosity,"298.15 K, 122430 kPa, Moving piston method",131.5 ± 7.9 mPa·s
same,viscosity,[4],15.6 ± 0.9 mPa·s
same,viscosity,[5],15.6 ± 0.2 mPa·s
same,viscosity,"323.15 K, 2820 kPa, Moving piston method",16.1 ± 1 mPa·s
same,viscosity,"323.15 K, 4190 kPa, Moving piston method",16.4 ± 1 mPa·s
same,viscosity,"323.15 K, 7360 kPa, Moving piston method",16.9 ± 1 mPa·s
same,viscosity,"323.15 K, 35560 kPa, Moving piston method",22 ± 1.3 mPa·s
same,viscosity,"323.15 K, 48760 kPa, Moving piston method",24.9 ± 1.5 mPa·s
same,viscosity,"323.15 K, 69300 kPa, Moving piston method",30.8 ± 1.9 mPa·s
same,viscosity,"323.15 K, 85200 kPa, Moving piston method",36.7 ± 2.2 mPa·s
same,viscosity,"323.15 K, 96500 kPa, Moving piston method",40.1 ± 2.4 mPa·s
same,viscosity,"323.15 K, 110550 kPa, Moving piston method",44.8 ± 2.7 mPa·s
same,viscosity,"323.15 K, 121530 kPa, Moving piston method",49.5 ± 3 mPa·s
same,viscosity,[6],9.6 ± 0.6 mPa·s
same,viscosity,[7],9.55 ± 0.09 mPa·s
same,viscosity,"343.15 K, 2820 kPa, Moving piston method",9.8 ± 0.6 mPa·s
same,viscosity,"343.15 K, 4190 kPa, Moving piston method",9.9 ± 0.6 mPa·s
same,viscosity,"343.15 K, 7360 kPa, Moving piston method",10.2 ± 0.6 mPa·s
same,viscosity,"343.15 K, 35560 kPa, Moving piston method",12.6 ± 0.8 mPa·s
same,viscosity,"343.15 K, 48760 kPa, Moving piston method",13.8 ± 0.8 mPa·s
same,viscosity,"343.15 K, 69300 kPa, Moving piston method",16 ± 1 mPa·s
same,viscosity,"343.15 K, 85200 kPa, Moving piston method",17.7 ± 1.1 mPa·s
same,viscosity,"343.15 K, 96500 kPa, Moving piston method",19.2 ± 1.2 mPa·s
same,viscosity,"343.15 K, 110550 kPa, Moving piston method",21.2 ± 1.3 mPa·s
same,viscosity,"343.15 K, 125530 kPa, Moving piston method",23.4 ± 1.4 mPa·s
CCCCCC[n+]1ccn(C)c1.O=S(=O)([N-]S(=O)(=O)C(F)(F)F)C(F)(F)F,viscosity,[1],70.96 ± 4.3 mPa·s
same,viscosity,[2],71.5 ± 2.4 mPa·s
same,viscosity,[3],71 ± 0.7 mPa·s
same,viscosity,"298.15 K, 2990 kPa, Moving piston method",71.04 ± 4.3 mPa·s
same,viscosity,"298.15 K, 4000 kPa, Moving piston method",71.38 ± 4.3 mPa·s
same,viscosity,"298.15 K, 7000 kPa, Moving piston method",73.71 ± 4.4 mPa·s
same,viscosity,"298.15 K, 35000 kPa, Moving piston method",103.4 ± 6.2 mPa·s
same,viscosity,"298.15 K, 50000 kPa, Moving piston method",122.2 ± 7.4 mPa·s
same,viscosity,"298.15 K, 70000 kPa, Moving piston method",152.2 ± 9.2 mPa·s
same,viscosity,"298.15 K, 83000 kPa, Moving piston method",173.2 ± 10 mPa·s
same,viscosity,"298.15 K, 93000 kPa, Moving piston method",196.3 ± 12 mPa·s
same,viscosity,"298.15 K, 110000 kPa, Moving piston method",237.6 ± 14 mPa·s
same,viscosity,"298.15 K, 124000 kPa, Moving piston method",275.7 ± 17 mPa·s
same,viscosity,[4],24.9 ± 1.5 mPa·s
same,viscosity,[5],24.9 ± 0.3 mPa·s
same,viscosity,"323.15 K, 2990 kPa, Moving piston method",25.81 ± 1.6 mPa·s
same,viscosity,"323.15 K, 4000 kPa, Moving piston method",25.98 ± 1.6 mPa·s
same,viscosity,"323.15 K, 7000 kPa, Moving piston method",26.87 ± 1.6 mPa·s
same,viscosity,"323.15 K, 35000 kPa, Moving piston method",35.96 ± 2.2 mPa·s
same,viscosity,"323.15 K, 50000 kPa, Moving piston method",41.57 ± 2.5 mPa·s
same,viscosity,"323.15 K, 70000 kPa, Moving piston method",50.43 ± 3.1 mPa·s
same,viscosity,"323.15 K, 83000 kPa, Moving piston method",56.96 ± 3.5 mPa·s
same,viscosity,"323.15 K, 93000 kPa, Moving piston method",62.11 ± 3.8 mPa·s
same,viscosity,"323.15 K, 110000 kPa, Moving piston method",71.6 ± 4.4 mPa·s
same,viscosity,"323.15 K, 124000 kPa, Moving piston method",80.46 ± 5 mPa·s
same,viscosity,[6],14.07 ± 0.85 mPa·s
same,viscosity,[7],14.1 ± 0.4 mPa·s
same,viscosity,"343.15 K, 2990 kPa, Moving piston method",14.12 ± 0.86 mPa·s
same,viscosity,"343.15 K, 4000 kPa, Moving piston method",14.22 ± 0.86 mPa·s
same,viscosity,"343.15 K, 7000 kPa, Moving piston method",14.6 ± 0.9 mPa·s
same,viscosity,"343.15 K, 35000 kPa, Moving piston method",18.62 ± 1.1 mPa·s
same,viscosity,"343.15 K, 50000 kPa, Moving piston method",21.1 ± 1.3 mPa·s
same,viscosity,"343.15 K, 70000 kPa, Moving piston method",25.17 ± 1.5 mPa·s
same,viscosity,"343.15 K, 83000 kPa, Moving piston method",28.12 ± 1.7 mPa·s
same,viscosity,"343.15 K, 93000 kPa, Moving piston method",30.42 ± 1.9 mPa·s
same,viscosity,"343.15 K, 110000 kPa, Moving piston method",34.65 ± 2.1 mPa·s
same,viscosity,"343.15 K, 124000 kPa, Moving piston method",38.34 ± 2.3 mPa·s
